Results on 33 molecules are retold here after patent US20210363152A1, “AMINOAZINE AMIDES” (Hoffmann-La Roche Inc., priority 2018, published 2021).

The target of this test is T1, Autotaxin enzyme (ATX) (Homo sapiens, UniProt Q13822).
T1 construct: purchased Echelon Biosciences, Inc. E-4000
Put plainly: In vitro ATX assay (enzymatic ATX inhibition, LPC 14:0 substrate, choline oxidase/HRP absorbance readout). The format is biochemical. Conditions: 0.3 mM LPC 14:0, 37° C., 4 hours, absorbance 555 nm. In short, it runs like this:
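Human ATX (10 ng/mL as added) in pH 9.0 Tris buffer with NaCl, MgCl2, CoCl2 and Triton X-100 was preincubated with compound for 15 min at 37 °C. LPC 14:0 (0.3 mM final) was then hydrolysed for 4 h at 37 °C. Released choline was detected by choline oxidase/HRP with 4-AAP/TOOS, read after 15 min RT as absorbance at 555 nm, giving banded IC50 values.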

Broadly, the IC50 is the concentration that gives 50% inhibition. Low values mean inhibition by little substance, high ones a need for much substance. In turn, `CN(C)CC1CN(C(=O)c2cnc(NCc3cc(OC(F)(F)F)cc(C4CC4)c3)nc2)C1` [Example 100, (2-((3-cyclopropyl-5-(trifluoromethoxy)benzyl)ami-no)pyrimidin-5-yl)(3-((dimethylamino)methyl)azeti-din-1-yl)methanone] yielded an IC50 of 0.1 to 1 µM. With `COC[C@@H]1CCCN1C(=O)c1cnc(NCc2cc(OC(F)(F)F)cc(C3CC3)c2)nc1` [Example 94, (S)-(2-((3-cyclopropyl-5-(trifluoromethoxy)benzyl)ami-no)pyrimidin-5-yl)(2-(methoxymethyl)pyrrolidin-1-yl)methanone] the figure was 0.1 to 1 µM. `CC(=O)N1CC2(CCN2C(=O)c2cnc(NC3Cc4ccc(Cl)cc4C3)nc2)C1` (stereo not drawn) [Example 154, 1-(1-(2-((5-Chloro-2,3-dihydro-1H-inden-2-yl)amino)pyrimidine-5-carbonyl)-1,6-diazaspiro[3.3]heptan-6-yl)ethanone] gave an IC50 of under 0.1 µM.

`CC(C)(C)c1cc(CNc2ncc(C(=O)N3CCC34COC4)cn2)cc(OC(F)(F)F)c1` [Example 4] came in with an IC50 of under 0.1 µM.

`CC1CCN1C(=O)c1cnc(NC2Cc3ccc(Cl)cc3C2)nc1` (stereo not drawn) [Example 44] registered an IC50 of under 0.1 µM. The molecule `CC(C)Oc1cc(CNc2ncc(C(=O)N3CCC34COC4)cn2)cc(OC(F)(F)F)c1` [Example 28] showed an IC50 of under 0.1 µM. Molecule `O=C(c1cnc(NCc2cc(OC(F)(F)F)cc(C3CC3)c2)nc1)N1CCC12CCC2` [Example 79, (2-((3-Cyclopropyl-5-(trifluoromethoxy)benzyl)amino)pyrimidin-5-yl)(1-azaspiro[3.3]heptan-1-yl)methanone] came in with an IC50 of under 0.1 µM.

The molecule `O=C(c1cnc(N[C@@H]2Cc3ccc(Cl)cc3C2)nc1)N1CCC12CCOC2` (stereo partly drawn) [Example 132, (2-(((R)-5-Chloro-2,3-dihydro-1H-inden-2-yl)amino)pyrimidin-5-yl)(6-oxa-1-azaspiro[3.4]octan-1-yl)methanone] had an IC50 of under 0.1 µM. With `CC(C)c1cc(CNc2ncc(C(=O)N3CCC3C(C)(C)O)cn2)cc(OC(F)(F)F)c1` (stereo not drawn) [Example 64] the figure was under 0.1 µM; with `O=C(c1cnc(NC2Cc3ccc(Cl)cc3C2)nc1)N1CCC12CCOCC2` (stereo not drawn) [Example 47], under 0.1 µM. `CS(=O)(=O)c1cccc(CNc2ncc(C(=O)N3CCC34COC4)cn2)c1` [Example 16] had an IC50 of at least 1 µM. With `CC(C)(O)C1CN(C(=O)c2cnc(NCc3cc(OC(F)(F)F)cc(C4CC4)c3)nc2)C1` [Example 84, (2-((3-cyclopropyl-5-(trifluoromethoxy)benzyl)ami-no)pyrimidin-5-yl)(3-(2-hydroxypropan-2-yl)azetidin-1-yl)methanone] the figure was 0.1 to 1 µM. The molecule `CC(C)c1cc(CNc2cnc(C(=O)N3CCC3)cn2)cc(OC(F)(F)F)c1` [Example 74, Azetidin-1-yl(5-((3-isopropyl-5-(trifluoromethoxy)benzyl)amino)pyrazin-2-yl)methanone] registered an IC50 of 0.1 to 1 µM.

`CC1(C)CCN1C(=O)c1cnc(NC2Cc3ccc(Cl)cc3C2)nc1` (stereo not drawn) [Example 41] returned an IC50 of under 0.1 µM. The molecule `COC[C@H]1CCCN1C(=O)c1cnc(NCc2cc(OC(F)(F)F)cc(C3CC3)c2)nc1` [Example 95, (R)-(2-((3-cyclopropyl-5-(trifluoromethxoy)benzyl)ami-no)pyrimidin-5-yl)(2-(methoxymethyl)pyrrolidin-1-yl)methanone] had an IC50 of 0.1 to 1 µM. `CC1CC(C)N1C(=O)c1cnc(NCc2cc(OC(F)(F)F)cc(C3CC3)c2)nc1` (single isomer, unassigned) [Example 120, (2-((3-Cyclopropyl-5-(trifluoromethoxy)-benzyl)amino)pyrimidin-5-yl)(2,4-dimethylazetidin-1-yl)methanone] showed an IC50 of under 0.1 µM. With `CC(C)(O)C1CCN1C(=O)c1cnc(NC2Cc3ccc(Cl)cc3C2)nc1` (stereo not drawn) [Example 60], the IC50 is under 0.1 µM.

`O=C(c1cnc(NCc2cc(OC(F)(F)F)cc(C3CC3)c2)nc1)N1CCC1C(F)F` (stereo not drawn) [Example 113, (2-((3-cyclopropyl-5-(trifluoromethoxy)benzyl)ami-no)pyrimidin-5-yl)(2-(difluoromethyl)azetidin-1-yl)methanone] returned an IC50 of under 0.1 µM. On to `N#Cc1ccc2c(c1)CC(Nc1ncc(C(=O)N3CCC34COC4)cn1)C2` (stereo not drawn) [Example 34], for which the IC50 is 0.1 to 1 µM. `O=C(c1cnc(NCc2cc(OC(F)(F)F)cc(C3CCC3)c2)nc1)N1CCC12COC2` [Example 23]: the IC50 was under 0.1 µM. On to `CCc1cc(CNc2ncc(C(=O)N3CCC34COC4)cn2)cc(OC(F)(F)F)c1` [Example 123, (2-((3-Ethyl-5-(trifluoromethoxy)benzyl)amino)pyrimidin-5-yl)(6-oxa-1-azaspiro[3.3]heptan-1-yl)methanone], for which the half-inhibitory concentration (IC50) was under 0.1 µM. With `CC1(O)CN(C(=O)c2cnc(NCc3cc(OC(F)(F)F)cc(C4CC4)c3)nc2)C1` [Example 87, (2-((3-cyclopropyl-5-(trifluoromethoxy)benzyl)ami-no)pyrimidin-5-yl)(3-hydroxy-3-methylazetidin-1-yl)methanone] the figure was 0.1 to 1 µM; with `CCOc1ccc2c(c1)CC(Nc1ncc(C(=O)N3CCC34COC4)cn1)C2` (stereo not drawn) [Example 162, (2-((5-Ethoxy-2,3-dihydro-1H-inden-2-yl)amino)pyrimidin-5-yl)(6-oxa-1-azaspiro[3.3]heptan-1-yl)methanone], 0.1 to 1 µM; with `O=C(c1cnc(NCc2cc(Cl)ccc2Cl)nc1)N1CCC12COC2` [Example 54], 0.1 to 1 µM.

Molecule `CS(=O)(=O)c1cc(CNc2ncc(C(=O)N3CCC34COC4)cn2)cc(OC(F)(F)F)c1` [Example 137, (2-((3-(Methylsulfonyl)-5-(trifluoromethoxy)benzyl)amino)pyrimidin-5-yl)(6-oxa-1-azaspiro[3.3]heptan-1-yl)methanone] had an IC50 of at least 1 µM. Turning to `O=C(c1cnc(NCc2cc(F)cc(OC(F)(F)F)c2)nc1)N1CCC12COC2` [Example 26], the IC50 fell in the range of 0.1 to 1 µM. As for `CC1CCN1C(=O)c1cnc(NCc2cc(C(F)(F)F)cc(C(F)(F)F)c2)nc1` (stereo not drawn) [Example 9], the IC50 was in the range of 0.1 to 1 µM. In turn, `O=C(c1cnc(NCc2cc(OC(F)(F)F)cc(C3CC3)c2)nc1)N1CCC12CN(C1CC1)C2` [Example 146, (2-((3-Cyclopropyl-5-(trifluoromethoxy)benzyl)amino)pyrimidin-5-yl) (6-cyclopropyl-1,6-diazaspiro[3.3]heptan-1-yl)methanone] yielded an IC50 of under 0.1 µM. Under `CC1CCN1C(=O)c1cnc(NCc2cc(Cl)cc(Cl)c2)nc1` (stereo not drawn) [Example 10] stands 0.1 to 1 µM; under `O=C(c1cnc(NC2Cc3ccc(Br)cc3C2)nc1)N1CCC12COC2` (stereo not drawn) [Example 43], under 0.1 µM. With `O=C(c1cnc(NCc2cccc(OC(F)(F)F)c2)nc1)N1CC2(COC2)C1` [Example 3] the figure was at least 1 µM; with `Cc1ccc2c(c1)CC(Nc1ncc(C(=O)N3CCC34COC4)cn1)C2` (stereo not drawn) [Example 124, (2-((5-Methyl-2,3-dihydro-1H-inden-2-yl)amino)pyrimidin-5-yl)(6-oxa-1-azaspiro[3.3]heptan-1-yl)methanone], 0.1 to 1 µM.

Turning to `CC(C)c1cc(CNc2ncc(C(=O)N3CCC34COC4)cn2)cc(S(F)(F)(F)(F)F)c1` [Example 19], the IC50 lay within 0.1 to 1 µM.
